Results published in ChEMBL document CHEMBL3044624, “Cycloate, an inhibitor of fatty acid elongase, modulates the metabolism of very-long-side-chain alkylresorcinols in rye seedlings” (Pest Manag Sci, 2009).

How the values were obtained:
[1] = system: Secale cereale; assay: Change in alkylresorcinol homologue composition in dry shoots of green Secale cereale (rye) seedlings grown from compound-treated seeds at 15 +/-2 degC assessed as C17:0 content at 46 uM by GC/EI-MS analysis (reference value: 1.46 mg/kg dry weight); format: functional
[2] = system: Secale cereale; assay: Change in alkylresorcinol homologue composition in dry shoots of green Secale cereale (rye) seedlings grown from compound-treated seeds at 29 +/-2 degC assessed as C17:1 content at 46 uM by GC/EI-MS analysis (reference value: 0.08 mg/kg dry weight); format: functional
[3] = system: Secale cereale; assay: Change in alkylresorcinol homologue composition in dry shoots of green Secale cereale (rye) seedlings grown from compound-treated seeds at 22 +/-2 degC assessed as C15:0 content at 46 uM by GC/EI-MS analysis (reference value: 0.24 mg/kg dry weight); format: functional
[4] = system: Secale cereale; assay: Change in alkylresorcinol content in dry shoots of green Secale cereale (rye) seedlings grown from compound-treated seeds at 15 +/-2 degC at 46 uM by thin layer chromatography (reference value: 4.15 +/-0.02 mg/kg dry weight); format: functional
[5] = system: Secale cereale; assay: Change in alkylresorcinol content in dry shoots of green Secale cereale (rye) seedlings grown from compound-treated seeds at 22 +/-2 degC at 46 uM by thin layer chromatography (reference value: 3.13 +/-0.07 mg/kg dry weight); format: functional
[6] = system: Secale cereale; assay: Toxicity against etiolated Secale cereale (rye) seedlings assessed as dry biomass of seedling grown at 29 +/-2 degC at 46 uM measured at 5 days after compound-treated seed germination (reference value: 2.13 +/-0.03 g); format: organism-based; settings: in vivo, 120 h
[7] = system: Secale cereale; assay: Toxicity against etiolated Secale cereale (rye) seedlings assessed as fresh biomass of seedling grown at 29 +/-2 degC at 46 uM measured at 5 days after compound-treated seed germination (reference value: 16.03 +/-0.67 g); format: organism-based; settings: in vivo, 120 h
[8] = system: Secale cereale; assay: Change in alkylresorcinol homologue composition in dry shoots of etiolated Secale cereale (rye) seedlings grown from compound-treated seeds at 22 +/-2 degC assessed as C17:0 content at 46 uM by GC/EI-MS analysis (reference value: 1.35 mg/kg dry weight); format: functional
[9] = system: Secale cereale; assay: Change in alkylresorcinol homologue composition in dry shoots of etiolated Secale cereale (rye) seedlings grown from compound-treated seeds at 29 +/-2 degC assessed as C15:0 content at 46 uM by GC/EI-MS analysis (reference value: 0.09 mg/kg dry weight); format: functional
[10] = system: Secale cereale; assay: Change in alkylresorcinol content in dry shoots of etiolated Secale cereale (rye) seedlings grown from compound-treated seeds at 15 +/-2 degC at 46 uM by thin layer chromatography (reference value: 8.13 +/-0.14 mg/kg dry weight); format: functional
[11] = system: Secale cereale; assay: Change in alkylresorcinol homologue composition in dry shoots of etiolated Secale cereale (rye) seedlings grown from compound-treated seeds at 15 +/-2 degC assessed as C23:0 content at 46 uM by GC/EI-MS analysis (reference value: 0.33 mg/kg dry weight); format: functional
[12] = system: Secale cereale; assay: Change in alkylresorcinol homologue composition in dry shoots of etiolated Secale cereale (rye) seedlings grown from compound-treated seeds at 29 +/-2 degC assessed as C23:0 content at 46 uM by GC/EI-MS analysis (reference value: 0.18 mg/kg dry weight); format: functional
[13] = system: Secale cereale; assay: Change in alkylresorcinol homologue composition in dry shoots of etiolated Secale cereale (rye) seedlings grown from compound-treated seeds at 15 +/-2 degC assessed as C21:0 content at 46 uM by GC/EI-MS analysis (reference value: 0.78 mg/kg dry weight); format: functional
[14] = system: Secale cereale; assay: Change in alkylresorcinol homologue composition in dry shoots of etiolated Secale cereale (rye) seedlings grown from compound-treated seeds at 15 +/-2 degC assessed as C21:1 content at 46 uM by GC/EI-MS analysis (reference value: 0.34 mg/kg dry weight); format: functional
[15] = system: Secale cereale; assay: Change in alkylresorcinol homologue composition in dry shoots of etiolated Secale cereale (rye) seedlings grown from compound-treated seeds at 22 +/-2 degC assessed as C21:1 content at 46 uM by GC/EI-MS analysis (reference value: 0.12 mg/kg dry weight); format: functional
[16] = system: Secale cereale; assay: Change in alkylresorcinol homologue composition in dry shoots of etiolated Secale cereale (rye) seedlings grown from compound-treated seeds at 15 +/-2 degC assessed as C19:0 content at 46 uM by GC/EI-MS analysis (reference value: 1.77 mg/kg dry weight); format: functional
[17] = system: Secale cereale; assay: Change in alkylresorcinol homologue composition in dry shoots of etiolated Secale cereale (rye) seedlings grown from compound-treated seeds at 22 +/-2 degC assessed as C19:1 content at 46 uM by GC/EI-MS analysis (reference value: 0.24 mg/kg dry weight); format: functional
[18] = system: Secale cereale; assay: Change in alkylresorcinol homologue composition in dry shoots of etiolated Secale cereale (rye) seedlings grown from compound-treated seeds at 29 +/-2 degC assessed as C19:1 content at 46 uM by GC/EI-MS analysis (Rvb =0.09 mg/kg dry weight); format: functional
[19] = system: Secale cereale; assay: Change in alkylresorcinol homologue composition in dry shoots of green Secale cereale (rye) seedlings grown from compound-treated seeds at 15 +/-2 degC assessed as C25:0 content at 46 uM by GC/EI-MS analysis (reference value: 0.06 mg/kg dry weight); format: functional
[20] = system: Secale cereale; assay: Change in alkylresorcinol homologue composition in dry shoots of green Secale cereale (rye) seedlings grown from compound-treated seeds at 22 +/-2 degC assessed as C25:0 content at 46 uM by GC/EI-MS analysis (reference value: 0.11 mg/kg dry weight); format: functional
[21] = system: Secale cereale; assay: Change in alkylresorcinol homologue composition in dry shoots of green Secale cereale (rye) seedlings grown from compound-treated seeds at 15 +/-2 degC assessed as C23:0 content at 46 uM by GC/EI-MS analysis (reference value: 0.59 mg/kg dry weight); format: functional
[22] = system: Secale cereale; assay: Change in alkylresorcinol homologue composition in dry shoots of green Secale cereale (rye) seedlings grown from compound-treated seeds at 22 +/-2 degC assessed as C23:0 content at 46 uM by GC/EI-MS analysis (reference value: 0.54 mg/kg dry weight); format: functional
[23] = system: Secale cereale; assay: Change in alkylresorcinol homologue composition in dry shoots of green Secale cereale (rye) seedlings grown from compound-treated seeds at 29 +/-2 degC assessed as C23:0 content at 46 uM by GC/EI-MS analysis (reference value: 0.08 mg/kg dry weight); format: functional
[24] = system: Secale cereale; assay: Change in alkylresorcinol homologue composition in dry shoots of green Secale cereale (rye) seedlings grown from compound-treated seeds at 22 +/-2 degC assessed as C21:1 content at 46 uM by GC/EI-MS analysis (reference value: 0.09 mg/kg dry weight); format: functional
[25] = system: Secale cereale; assay: Change in alkylresorcinol homologue composition in dry shoots of etiolated Secale cereale (rye) seedlings grown from compound-treated seeds at 15 +/-2 degC assessed as C19:1 content at 46 uM by GC/EI-MS analysis (reference value: 0.54 mg/kg dry weight); format: functional

CCSC(=O)N(CC)C1CCCCC1 [CYCLOATE]
Activity [1]: 2.75 mg/kg | Activity [2]: 0.75 mg/kg | Activity [3]: 0.2 mg/kg | Activity [4]: 6.67 mg/kg | Activity [5]: 3.17 mg/kg | Activity [6]: 2.32 g | Activity [7]: 21 g | Activity [8]: 0.83 mg/kg | Activity [9]: 0.72 mg/kg | Activity [10]: 13.11 mg/kg | Activity [11]: 0.17 mg/kg | Activity [12]: 0.34 mg/kg | Activity [13]: 0.69 mg/kg | Activity [14]: 0.43 mg/kg | Activity [15]: 0.11 mg/kg | Activity [16]: 2.64 mg/kg | Activity [17]: 0.21 mg/kg | Activity [18]: 1.2 mg/kg | Activity [19]: 0.09 mg/kg | Activity [20]: 0.07 mg/kg | Activity [21]: 0.17 mg/kg | Activity [22]: 0.13 mg/kg | Activity [23]: 0.32 mg/kg | Activity [24]: 0.05 mg/kg | Activity [25]: 1.08 mg/kg
